Source: article PMC5225183, “Fingerprinting of neurotoxic compounds using a mouse embryonic stem cell dual luminescence reporter assay” (Archives of Toxicology, 2016)
Read-outs that look alike come from different tables or passages of the source. Marks after values point to notes of the source that are not given here. Square brackets hold non-standard residues; d marks the D form. Peptide text beside a SMILES is read from it. * marks the point of attachment. Fmoc = O=C(OCC1c2ccccc2-c2ccccc21)*; Cha = N[C@@H](CC1CCCCC1)C(=O)O; AMC = Cc1cc(=O)oc2cc(N*)ccc12

Columns and labels:
CGR8-2Luc ESCs = test system: CGR8-2Luc ESCs
From the text: (§1) Fig. 1 Synopsis of experimental protocols. The impact of compounds on neural promoter activity (FLuc, Firefly Luciferase under the control of the Tα1 promoter), general promoter activity (RLuc, Renilla Luciferase under the control of the EF1α promoter), and amount of DNA (PI, propidium iodide fluorescence in cell homogenates) was investigated in undifferentiated mouse embryonic pluripotent stem cells (ESCs) and on ESC-derived neurons. Arrows indicate the time of measurement of the three parameters. a Protocol for testing compounds effects on ESCs. CGR8-2Luc cells were plated on gelatin-coated 96-well plates in maintenance medium (BHK21 medium containing 10 % FCS, L-glutamine, NEAA, P/S, and LIF). Twenty-four hours later, cells were exposed to compounds for forty-eight hours. b Protocol for testing compounds on ESC-derived neurons. CGR8-2Luc cells were co-cultured with MS5 cells to induce neural differentiation in DMEM medium containing 15 % KO-serum, NEAA, β-mercaptoethanol, and P/S. On day 5, cells were detached and seeded on polyornithine-coated plates in DMEM medium containing N2 supplement, bFGF, and P/S; compound exposure was from day 6 to day 8
(§2) To test compounds on ESC-derived neurons, neuronal differentiation was carried out as previously described (Suter et al. [2009]; Xu et al. [2014]). Briefly, CGR8-2Luc cells were seeded on irradiated bone marrow-derived stromal MS5 cells and cultivated for 4 days in DMEM medium containing 15 % Knock-out™ Serum Replacement, non-essential amino acids, beta-mercaptoethanol, and penicillin/streptomycin. At day 5, cells were then re-plated (3 × 10^5 cells/cm^2) on polyornithine-coated 96-well plates in N2 medium containing DMEM, N2 supplement, penicillin/streptomycin, and 10 ng/ml basic human fibroblast growth factor (bFGF) (Invitrogen). […] To assess toxicity of compounds on undifferentiated pluripotent stem cells (ESCs), CGR8-2Luc cells were plated at 45,000 cells/cm^2 on 0.1 % gelatin-coated dishes in BHK21 medium, supplemented with 10 % fetal calf serum, L-glutamine, non-essential amino acids, penicillin/streptomycin, and leukemia inhibitory factor (LIF). After 24 h, compounds were added and incubated for 48 h, before luciferase expression and PI fluorescence were analyzed. In all experiments, methylmercury was used as a positive control at a concentration of 5 µM.
(§3) After measurement of luciferase activity, DNA quantity was determined by PI assay, as previously described (Xu et al. [2014]). PI was added to cell homogenates after the luciferase test, at a final concentration of 50 µg/ml and incubated for 2 h. After incubation, fluorescence intensity was measured on a Flexstation 3 microplate reader (Excitation: 544 nm ± 15 nm; Emission: 620 nm ± 15 nm). Results are expressed as percentage of control. Propidium iodide (PI) measures total DNA content as an approximation of the cell number. A decrease in PI fluorescence was interpreted as a decrease in cell number and therefore throughout the text referred to as cytotoxicity.
(§4) Lowest adverse effect level (LOAEL) was defined as the lowest tested concentrations that lead to a statistically significant decrease for a given read-out (FLuc, RLuc, and PI) compared to baseline. “Baseline” was not in all cases defined by untreated cells, but may also refer to, e.g., a state of increased activity due to low, non-toxic compound concentrations.

ESC-derived neurons = test system: ESC-derived neurons
From the text: as §1, §2, §3, §4

[1] = test system: Tubulin α1 (Tα1) promoter; experiment: cells
From the text: (§5) Dual luciferase expressing CGR8-2Luc cells were obtained by transduction of mouse ESC CGR8 cells with the 2K7 EFS-Renilla Luciferase (RLuc)/Talpha1-Firefly Luciferase (FLuc) vector as previously described (Suter et al. [2006], [2009]); EFS corresponds to the short promoter of the eukaryotic translation elongation factor 1 alpha (EF1α), and Talpha1 to the Tubulin α1 (Tα1) promoter. Tα1 was selected as a promoter active in neurons, including early stages of neural differentiation. EF1α was originally selected to function as a constitutive promoter; however, it responds to cellular differentiation as well as to various chemicals, as previously shown (Kern et al. [2013]). Cells were cultured on 0.1 % gelatin-coated dishes in CGR8-2luc maintenance medium: BHK21 medium, supplemented with 10 % fetal calf serum, L-glutamine, non-essential amino acids, penicillin/streptomycin, and leukemia inhibitory factor (LIF). CGR8 cells were grown in a feeder-independent manner (embryonic pluripotent stem cells, ESCs) as described in protocol 1 (Fig. 1) before testing compounds of interest.
as §1, §2
(§6) Luciferase activities were measured with a Dual-Luciferase™ Reporter system kit. CGR8-2Luc ES cells were lysed in 96-well plates according to the manufacturer’s instructions. Luminescence measurements were performed on a Fluostar Optima reader. Luminescence counts were expressed as percentage of promoter activity normalized by comparison with the control wells treated by DMSO.

EF1α promoter = test system: EF1α promoter
From the text: as §5, §1, §2, §6

[2] = test system: Tubulin α1 (Tα1) promoter
From the text: as §5, §1, §2, §6

[3] = test system: ESCs and ESC-derived neurons; experiment: Dual luminescence reporter test system, all readouts in ESCs and ESC-derived neurons
From the text: as §1, with “neurons.” for “neurons. CGR8-2Luc cells were co-cultured with MS5 cells to induce neural differentiation in DMEM medium containing 15 % KO-serum, NEAA, β-mercaptoethanol, and P/S. On day 5, cells were detached and seeded on polyornithine-coated plates in DMEM medium containing N2 supplement, bFGF, and P/S; compound exposure was from day 6 to day 8”
as §2, with “At” for “To test compounds on ESC-derived neurons, neuronal differentiation was carried out as previously described (Suter et al. [2009]; Xu et al. [2014]). Briefly, CGR8-2Luc cells were seeded on irradiated bone marrow-derived stromal MS5 cells and cultivated for 4 days in DMEM medium containing 15 % Knock-out™ Serum Replacement, non-essential amino acids, beta-mercaptoethanol, and penicillin/streptomycin. At”
Luciferase activities were measured with a Dual-Luciferase™ Reporter system kit. CGR8-2Luc ES cells were lysed in 96-well plates according to the manufacturer’s instructions. Luminescence measurements were performed on a Fluostar Optima reader. Luminescence counts were expressed as percentage of promoter activity normalized by comparison with the control wells treated by DMSO. […] parameters were measured in homogenates of ESCs and in ESC-derived neurons: (1) FLuc, reflecting the activity of early neural promoter Tα1. FLuc increases during neuronal differentiation. Many neurotoxic compounds may affect FLuc expression, either through impact on neuronal differentiation, through changes of neuronal gene expression, or through killing of neurons.
PI was added to cell homogenates after the luciferase test, at a final concentration of 50 µg/ml and incubated for 2 h. After incubation, fluorescence intensity was measured on a Flexstation 3 microplate reader (Excitation: 544 nm ± 15 nm; Emission: 620 nm ± 15 nm). Results are expressed as percentage of control. Propidium iodide (PI) measures total DNA content as an approximation of the cell number. A decrease in PI fluorescence was interpreted as a decrease in cell number and therefore throughout the text referred to as cytotoxicity.
To describe the shape of different concentration–response curves, arbitrary scores were assigned as follows: 0 for “no change,” 1 for “down-stroke,” 2 for “bimodal profile,” and 3 for “up-stroke” (Fig. S1). A curve was classified as “down-stroke” or “up-stroke” if the change in response values comparative to control was statistically significant (p value <0.05, one-way ANOVA with post hoc Dunnett) with an additional requirement of a 30 % decrease or increase of mean response value relative to controls, respectively. If the absolute change in mean response values was below 30 % the curve was classified as “no change.” A curve was classified as “bimodal” if first up-stroke and subsequently down-stroke was observed.

[4] = ref Zimmer et al. ([2014]); cited from earlier work
[5] = undifferentiated ESCs, 48 h exposure, PI assay (cytotoxicity)
[6] = ESC-derived neurons, 48 h exposure, PI assay (cytotoxicity)
[7] = ESC-derived neurons, 48 h exposure
[8] = undifferentiated ESCs, 48 h exposure
[9] = undifferentiated ESCs, 48 h exposure, lowest tested concentration with statistically significant decrease
[10] = reporter activity changes in the non-cytotoxic concentration range, highest possible number 4

| Molecule | LOAEL ESC DNA (CGR8-2Luc ESCs; [5]) [µM] | LOAEL Neurons DNA (ESC-derived neurons; [6]) [µM] | LOAEL Neurons Tα1 [1, 7] [µM] | LOAEL Neurons EF1α (EF1α promoter; [7]) [µM] | LOAEL ESC EF1α (EF1α promoter; [8]) [µM] | LOAEL ESC Tα1 [2, 9] [µM] | Number of non-cytotoxic changes ([3]; mouse, 48 h) | Concentration in humans [4] | LOAEL Neurons Tα1 ([1]; ESC-derived neurons, 48 h exposure, listed as amiodarone) [µM] | result in the dual luminescence reporter test system [3] | Number of non-cytotoxic changes [3, 10] | LOAEL ESC DNA (CGR8-2Luc ESCs; mouse) [µM] | LOAEL Neurons DNA (ESC-derived neurons; mouse) [µM] | LOAEL Neurons Tα1 ([1]; mouse) [µM] | LOAEL ESC EF1α (EF1α promoter; mouse) [µM] | LOAEL Neurons EF1α (EF1α promoter; mouse) [µM] | LOAEL ESC Tα1 ([2]; mouse) [µM] | result in the dual luminescence reporter test system ([3]; ESCs and neurons, FLuc, RLuc, PI) |
| --- | --- | --- | --- | --- | --- | --- | --- | --- | --- | --- | --- | --- | --- | --- | --- | --- | --- | --- |
| COCCCOc1cc(C[C@@H](C[C@H](N)[C@@H](O)C[C@H](C(=O)NCC(C)(C)C(N)=O)C(C)C)C(C)C)ccc1OC [Aliskiren] | >50 | >50 | >50 | >50 | >50 | >50 | 0 | 0.33^k µM |  |  |  |  |  |  |  |  |  |  |
| CCCCc1oc2ccccc2c1C(=O)c1cc(I)c(OCCN(CC)CC)c(I)c1 [Amiodarone] |  |  | 50 |  |  |  | 1 |  | 5 |  |  |  |  |  |  |  |  |  |
| CC(C1CC1)C(O)(Cn1cncn1)c1ccc(Cl)cc1 (stereo not drawn) [Cyproconazole] | >50 | >50 | >50 | >50 | >50 | >50 | 0 |  |  | did not give a signal |  |  |  |  |  |  |  |  |
| COc1cccc2c1C(=O)c1c(O)c3c(c(O)c1C2=O)C[C@@](O)(C(=O)CO)C[C@@H]3O[C@H]1C[C@H](N)[C@H](O)[C@H](C)O1 [Doxorubicin] | 0.005 | 0.005 | 0.005 | 0.005 | 0.005 | 0.005 | 0 |  |  | strongly decreased the neuronal and general reporter activities, as well as the cell number |  |  |  |  |  |  |  |  |
| Cc1cc(=O)oc2cc(NC(=O)[C@H](CCCCN)NC(=O)[C@H](CC3CCCCC3)NC(=O)OCC3c4ccccc4-c4ccccc43)ccc12 [Galnon] (Fmoc-[Cha]-Lys-{AMC}) | 20 | >20 | 5 | 5 | 20 | 20 |  |  |  |  | 2 |  |  |  |  |  |  |  |
| Cc1ccc(NC(=O)c2ccc(CN3CCN(C)CC3)cc2)cc1Nc1nccc(-c2cccnc2)n1 [Imatinib] | >10 | >10 | 10 | 10 | >10 | 10 | 3 |  |  |  |  |  |  |  |  |  |  |  |
| CCCc1nn(C)c2c(=O)[nH]c(-c3cc(S(=O)(=O)N4CCN(C)CC4)ccc3OCC)nc12 [Sildenafil] | >50 | >50 | >50 | >50 | >50 | >50 | 0 |  |  |  |  |  |  |  |  |  |  |  |
| CC(C)(C)C(=O)C(Oc1ccc(Cl)cc1)n1cncn1 (stereo not drawn) [Triadimefon] |  |  |  |  |  |  |  |  |  | relatively weak responses |  | >50 | >50 | >50 | >50 | 50 | 50 | potentially neurotoxic |
| Exenatide | >0.02 | >0.02 | >0.02 | >0.02 | >0.02 | >0.02 |  |  |  |  | 0 |  |  |  |  |  |  |  |
